In US10426755B2, “Methods for inhibiting cancer cells” (Chang Gung Memorial Hospital, Chiayi, priority 2015, dated 2019):
“Also recorded” adds a separate entry of the source.

Tests used:
Format in all cases: cell-based
[1] = tested on: ARK1 endometrial cancer cells; test: XTT proliferation assay, ARK1; settings: 5, 10 and 20 μM DT, 1-2 days, FIG. 4
Protocol: The prostate cancer cells were plated at a density of 10^3 or 3×10^3 per well, in a 96-well plate, in a medium containing 10% Fetal bovine serum (FBS) (Gibco®, commercially available from Life Technologies, USA). Once the prostate cancer cells were attached to the culture dish, the 10% FBS medium was replaced with a second 10% FBS medium and each of the prostate cancer cell line was treated with 1, 5, and 10 μM of DT respectively for 1-2 days. The absorbance was measured using XTT assay kit (commercially available from Roche, Switzerland) at 492 nm using an ELISA reader (Bio-Rad Laboratories, USA).
An in vitro evaluation of the effect of DT on endometrial cancer cells was performed. The endometrial cancer cell lines, ARK1 and ARK2, were provided by Dr. T H Wang at Chang Gung Meorial Hospital, Linkou, Taiwan)
The endometrial cancer cells were cultured and plated according to the steps in Example 1 and each of the endometrial cancer cell line was treated with 0 (control), 5, 10 and 20 μM of DT, respectively for 1-2 days. The absorbance was measured using XTT assay kit at 492 nm using an ELISA reader.

[2] = tested on: prostate cancer cells (hormone therapy-resistant PC3, DU145 and LNCaP); test: Annexin V/PI flow cytometry apoptosis/necrosis, prostate cancer cells; settings: 10 or 20 μM DT, 24-48 hours, vs PBS and DMSO vehicle (CT); time dependent; FIG. 6
Protocol: The effect of DT on metastatic prostate cancer cells (hormone therapy-resistant PC3, DU145 and LNCaP); lung cancer cells (A549 and chemotherapy-resistant/metastatic H460); and breast cancer cells (MCF-7, tamoxifen-resistant MCF7 and MDA MB-231) was assessed.
1×10^6 Cancer cells were seeded in a 100-mm plate and cultured overnight. The cancer cells were treated with phosphate buffered saline (PBS), a Dimethyl sulfoxide (DMSO) vehicle (CT), 10 or 20 μM of DT for 24-48 hours, then collected and washed with cold PBS. The supernatant was removed by centrifugation and resuspended in FITC Annexin V binding buffer and Propidium iodide (PI) (Annexin V-FITC Apoptosis Detection Kit, commercially available from Strong Biotech Corporation, Taiwan). The suspended cancer cells were stained at room temperature, in the dark for 15 min and analyzed by the BD FACSCanto™ flow cytometry (Becton Dickinson, USA). The amount of early apoptosis, late apoptosis, and necrosis was measured as the percentage of annexin-V positive/PI negative (Q4 in the FACS images), annexin-V positive/PI positive (Q2 in the FACS images), and annexin-V negative/PI positive cells (Q1 in the FACS images), respectively. Normal cells are in […] of the FACS images.

[3] = tested on: prostate cancer cells (PC3, DU145 and 22RV1); test: Prostate cancer cell invasion assay with DT-treated conditioned media; settings: 5-10 μM DT, 24 hours, results not shown
Protocol: (§1) Cell Invasion Assay: cells of interest were treated with a control vehicle, 5 or 10 μM of DT and incubated for 3 days. 1×10^5 cells were placed into the upper chamber of transwell plates (8 μm) with membranes pre-coated with 20% Matrigel and the bottom chamber contained 600 μL media supplemented with 10% fetal bovine serum (FBS). The cells migrated to the bottom of the chamber were fixed, stained and counted.
As illustrated in Example 10, the production of CCL2 was inhibited by DT in both prostate cancer cells and macrophage, the effect of DT on monocyte/cancer cell co-culture and macrophage/cancer cell co-culture was examined using the invasion assay described in Example 9. • (a) THP1 monocytes, Raw264.7 macrophage, monocyte/prostate cancer co-culture and macrophage/prostate cancer co-culture were treated with a vehicle (DMSO), 5 or 10 μM DT for 24 hours, the cultured medium was collected and placed into the lower chamber of a transwell plate. • (b) Prostate cancer cells (PC3, DU145 and 22RV1) were placed in the cell invasion assay). The level of CCL2 in the invasion assay was measured by ELIZA method.

[4] = tested on: γ-H2AX, phosphorylated-ATM, phosphorylated-p53, PUMA, BAX, caspase-3, caspase-9 and PARP in LNCaP and DU145 prostate cancer cells; test: Western blot of cell damage and cell death proteins, prostate cancer cells; settings: various concentrations of DT, 6 to 24 hours, vs control vehicle; dose and time dependent; FIG. 9 (a)-(g)
Protocol: An in vitro evaluation on the damage effect of DT on cancer cells was performed, using prostate cancer cells (metastatic LNCaP and metastatic DU145, hormone therapy resistant and metastatic PC3 and 22RV1) and lung cancer cells (A549 and chemotherapy-resistant/metastatic H460).
Cancer cells were treated with a control vehicle, dihydrotestosterone (DHT), and various concentrations of DT between 6 to 24 hours. Cellular extracts of treated cancer cells were analyzed using Western Blot.

[5] = tested on: colorectal cancer cells (chemotherapy resistant HCT116); test: Cell migration (wound-healing) assay, colorectal cancer cells; settings: DT vs control vehicle, 24 h, dose dependent; FIG. 13 (b)
Protocol: (§2) An in vitro evaluation of the effect of DT on lung cancer cells (A549 and chemotherapy resistant/metastatic H460), prostate cancer cells (metastatic DU145) and colorectal cancer cells (chemotherapy resistant HCT116) invasion and migration was performed, using cell invasion assay and cell migration assay.
Cell Migration Assay: In vitro wound-healing assay was used to assess cell motility in two dimensions. Cancer cells were plated overnight to achieve a subconfluent cell layer in 24-well plates. A scratch was made on the cell layer with a micropipette tip, and cultures were washed twice with serum-free medium to remove floating cells. Cancer cells were incubated in a culture medium containing DT or the control vehicle. Wound healing was visualized by comparing photographs taken at the time of adding the DT/control vehicle and 24 h later. Three experiments were done in quadruplicates.

[6] = tested on: lung cancer cells (A549 and chemotherapy resistant/metastatic H460); test: Cell invasion assay (transwell, Matrigel), lung cancer cells; settings: 5 or 10 μM DT, 3 days, vs control vehicle; FIG. 11
Protocol: as §2, §1

[7] = tested on: skp2 and downstream genes in A549 and H460 lung cancer cells; test: skp2 and downstream gene mRNA expression, lung cancer cells; settings: various concentrations of DT vs DMSO, FIG. 10 (c)-(f)
Protocol: It has been reported that skp2 plays an important role in the metastasis of cancer cells. An in vitro evaluation of the effect of DT on prostate cancer cell metastasis was performed, by measuring the mRNA expression of skp2 in the following prostate cancer cell lines: meatstatic DU145 cells (Panels i-j of FIG. 9), hormone therapy resistant and metastatic PC3 cells (Panel h of FIG. 9), and 22RV1 cells (Panels k-l of FIG. 9), A549 lung cancer cells (Panels (c)-(e) of FIG. 10), chemotherapy-resistant/metastatic H460 lung cancer cells (Panels (d) and (f) of FIG. 10), HCT116 colon cancer cells (Panels (g) and (i) of FIG. 10) and MCF7-tamoxifen resistant breast cancer cells (Panels (h) and (j) of FIG. 10) […].
The cancer cells were treated with DMSO and various concentrations of DT.

Cc1cccc2c3c(ccc12)C(=O)C1=C(OCC1C)C3=O (stereo not drawn) [DT, dihydroisotanshinone I]
inhibition of ARK1 endometrial cancer cells [1]: effective in inhibiting ARK1 and ARK2 endometrial cancer cells
early apoptosis, late apoptosis and necrosis, prostate cancer cells [2]: more early apoptosis, late apoptosis and necrosis; also recorded: induced prostate cancer cell apoptosis/necrosis
migration of prostate cancer cells ([3]; DT-treated macrophage medium): significantly inhibit the migration of prostate cancer cells in a dose-dependent manner
migration of prostate cancer cells ([3]; DT-treated macrophage/prostate cancer co-culture medium): significantly inhibit the migration of prostate cancer cells in a dose-dependent manner
migration of prostate cancer cells ([3]; DT-treated monocyte medium): significantly inhibit the migration of prostate cancer cells in a dose-dependent manner
migration of prostate cancer cells ([3]; DT-treated monocyte/prostate cancer co-culture medium): significantly inhibit the migration of prostate cancer cells in a dose-dependent manner
DNA damage response proteins (γ-H2AX and phosphorylated-ATM), prostate cancer cells [4]: increased
cell cycle regulatory protein (phosphorylated-p53), prostate cancer cells [4]: increased
cell program death proteins (PUMA, BAX, caspase-3, caspase-9 and PARP), prostate cancer cells [4]: increased
colorectal cancer cell migration into the wounded area [5]: reduced chemotherapy resistant colorectal cancer cell migration; also recorded: reduced colon cancer cell migration into the wounded area
lung cancer cell motility (invasion assay) [6]: reduced metastatic lung cancer cell motility; also recorded: reduced the motility of lung cancer cells
mRNA expression of skp2 and its downstream genes, lung cancer [7]: effectively inhibit mRNA expression of skp2 and its downstream genes; also recorded: reduces skps and its downstream genes, MMP2, MMP9 and E-cadherin
